Patent publication US20260262643A1, “HERBICIDAL BENZOXAZINES” (FMC CORPORATION, priority 2022, published 2026)

Legend:
oat, wild [1] = assay: Test C postemergence; assay type: in vivo, Avena fatua; conditions: 10 days, 0 to 100 scale (0 no effect, 100 complete control)
Method in brief: (§1)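 Test material, in non-phytotoxic solvent with surfactant, was sprayed on the soil directly after seeding (preemergence) or on young plants of 2–10 cm with one to two leaves (postemergence). Greenhouse, 10 days; 0–100 visual control scale.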

barnyardgrass [2] = assay: Test D flooded paddy test; assay type: in vivo, Echinochloa crus-galli; conditions: 250 g ai/ha, applied to paddy water, visual rating after 13 to 14 days, scale 0 to 100 (0 no effect, 100 complete control)
Method in brief: (§2)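 Post-flood water application at the 2-leaf stage; 3 cm flood depth kept constant; visual control rating 0–100 after 13–14 days greenhouse growth.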

soybean [3] = assay: Test C preemergence; assay type: in vivo, Glycine max; conditions: preemergence, 0 to 100 scale (0 no effect, 100 complete control)
Method in brief: as §1

pigweed, palmer [4] = assay: Test C preemergence; assay type: in vivo, Amaranthus palmeri; conditions: preemergence, 0 to 100 scale (0 no effect, 100 complete control)
Method in brief: as §1

blackgrass [5] = assay: Test C preemergence; assay type: in vivo, Alopecurus myosuroides; conditions: preemergence, 0 to 100 scale (0 no effect, 100 complete control)
Method in brief: as §1

horseweed = assay: Test C postemergence; assay type: in vivo, Erigeron canadensis; conditions: 10 days, 0 to 100 scale (0 no effect, 100 complete control)
Method in brief: as §1

galium = assay: Test C postemergence; assay type: in vivo, Galium aparine; conditions: 10 days, 0 to 100 scale (0 no effect, 100 complete control)
Method in brief: as §1

ragweed = assay: Test C postemergence; assay type: in vivo, Ambrosia artemisiifolia; conditions: 10 days, 0 to 100 scale (0 no effect, 100 complete control)
Method in brief: as §1

green foxtail [6] = assay: Test C preemergence; assay type: in vivo, Setaria viridis; conditions: preemergence, 0 to 100 scale (0 no effect, 100 complete control)
Method in brief: as §1

wheat [7] = assay: Test C postemergence; assay type: in vivo, Triticum aestivum; conditions: 10 days, 0 to 100 scale (0 no effect, 100 complete control)
Method in brief: as §1

kochia [8] = assay: Test C postemergence; assay type: in vivo, Bassia scoparia; conditions: 10 days, 0 to 100 scale (0 no effect, 100 complete control)
Method in brief: as §1

corn [9] = assay: Test C postemergence; assay type: in vivo, Zea mays; conditions: 10 days, 0 to 100 scale (0 no effect, 100 complete control)
Method in brief: as §1

ryegrass, Italian [10] = assay: Test C postemergence; assay type: in vivo, Lolium multiflorum; conditions: 10 days, 0 to 100 scale (0 no effect, 100 complete control)
Method in brief: as §1

ryegrass, Italian [11] = assay: Test C preemergence; assay type: in vivo, Lolium multiflorum; conditions: preemergence, 0 to 100 scale (0 no effect, 100 complete control)
Method in brief: as §1

kochia [12] = assay: Test C preemergence; assay type: in vivo, Bassia scoparia; conditions: preemergence, 0 to 100 scale (0 no effect, 100 complete control)
Method in brief: as §1

ducksalad = assay: Test D flooded paddy test; assay type: in vivo, Heteranthera limosa; conditions: 250 g ai/ha, applied to paddy water, visual rating after 13 to 14 days, scale 0 to 100 (0 no effect, 100 complete control)
Method in brief: as §2

green foxtail [13] = assay: Test C postemergence; assay type: in vivo, Setaria viridis; conditions: 10 days, 0 to 100 scale (0 no effect, 100 complete control)
Method in brief: as §1

blackgrass [14] = assay: Test C postemergence; assay type: in vivo, Alopecurus myosuroides; conditions: 10 days, 0 to 100 scale (0 no effect, 100 complete control)
Method in brief: as §1

rice = assay: Test D flooded paddy test; assay type: in vivo, Oryza sativa; conditions: 250 g ai/ha, applied to paddy water, visual rating after 13 to 14 days, scale 0 to 100 (0 no effect, 100 complete control)
Method in brief: as §2

wheat [15] = assay: Test C preemergence; assay type: in vivo, Triticum aestivum; conditions: preemergence, 0 to 100 scale (0 no effect, 100 complete control)
Method in brief: as §1

oat, wild [16] = assay: Test C preemergence; assay type: in vivo, Avena fatua; conditions: preemergence, 0 to 100 scale (0 no effect, 100 complete control)
Method in brief: as §1

soybean [17] = assay: Test C postemergence; assay type: in vivo, Glycine max; conditions: 10 days, 0 to 100 scale (0 no effect, 100 complete control)
Method in brief: as §1

barnyardgrass [18] = assay: Test C postemergence; assay type: in vivo, Echinochloa crusgalli; conditions: 10 days, 0 to 100 scale (0 no effect, 100 complete control)
Method in brief: as §1

corn [19] = assay: Test C preemergence; assay type: in vivo, Zea mays; conditions: preemergence, 0 to 100 scale (0 no effect, 100 complete control)
Method in brief: as §1

pigweed, palmer [20] = assay: Test C postemergence; assay type: in vivo, Amaranthus palmeri; conditions: 10 days, 0 to 100 scale (0 no effect, 100 complete control)
Method in brief: as §1

barnyardgrass [21] = assay: Test C preemergence; assay type: in vivo, Echinochloa crusgalli; conditions: preemergence, 0 to 100 scale (0 no effect, 100 complete control)
Method in brief: as §1

sedge, umbrella = assay: Test D flooded paddy test; assay type: in vivo, Cyperus difformis; conditions: 250 g ai/ha, applied to paddy water, visual rating after 13 to 14 days, scale 0 to 100 (0 no effect, 100 complete control)
Method in brief: as §2

## Cc1cccc2c1OC(C(F)(F)F)CN2C(=O)c1cccc(-n2cnc(C(C)C)n2)c1 (single isomer, unassigned) [Compound 302]
oat, wild [1]; 500 g ai/ha, postemergence
  Plant response rating, Oat, Wild: 10
oat, wild [1]; Postemergence, 125 g ai/ha
  Plant response rating, Oat, Wild: 0
Barnyardgrass [2]
  Plant response rating, Barnyardgrass (Flood): 0
Soybean [3]; 500 g ai/ha
  Soybean plant response rating: 20
Soybean [3]; Test C, 125 g ai/ha
  Soybean plant response rating: 10
pigweed, palmer [4]; 500 g ai/ha
  Pigweed, Palmer plant response rating: 80
pigweed, palmer [4]; Test C, 125 g ai/ha
  Pigweed, Palmer plant response rating: 70
Blackgrass [5]; 500 g ai/ha
  Blackgrass plant response rating: 60
Blackgrass [5]; Test C, 125 g ai/ha
  Blackgrass plant response rating: 30
horseweed; 500 g ai/ha, postemergence
  Plant response rating, Horseweed: 50
horseweed; Postemergence, 125 g ai/ha
  Plant response rating, Horseweed: 60
galium; 500 g ai/ha, postemergence
  Plant response rating, Galium: 90
ragweed; 500 g ai/ha, postemergence
  Plant response rating, Ragweed: 20
ragweed; Postemergence, 125 g ai/ha
  Plant response rating, Ragweed: 20
Green foxtail [6]; 500 g ai/ha
  Foxtail, Green plant response rating: 80
Green foxtail [6]; Test C, 125 g ai/ha
  Foxtail, Green plant response rating: 20
Wheat [7]; 500 g ai/ha, postemergence
  Plant response rating, Wheat: 10
Wheat [7]; Postemergence, 125 g ai/ha
  Plant response rating, Wheat: 10
Kochia [8]; 500 g ai/ha, postemergence
  Plant response rating, Kochia: 70
Kochia [8]; Postemergence, 125 g ai/ha
  Plant response rating, Kochia: 20
Corn [9]; 500 g ai/ha, postemergence
  Plant response rating, Corn: 10
Corn [9]; Postemergence, 125 g ai/ha
  Plant response rating, Corn: 10
ryegrass, Italian [10]; 500 g ai/ha, postemergence
  Plant response rating, Ryegrass, Italian: 50
ryegrass, Italian [10]; Postemergence, 125 g ai/ha
  Plant response rating, Ryegrass, Italian: 0
ryegrass, Italian [11]; 500 g ai/ha
  Ryegrass, Italian plant response rating: 100
ryegrass, Italian [11]; Test C, 125 g ai/ha
  Ryegrass, Italian plant response rating: 80
Kochia [12]; 500 g ai/ha
  Kochia plant response rating: 80
Kochia [12]; Test C, 125 g ai/ha
  Kochia plant response rating: 0
ducksalad
  Plant response rating, Ducksalad (Flood): 0
Green foxtail [13]; 500 g ai/ha, postemergence
  Plant response rating, Foxtail, Green: 10
Green foxtail [13]; Postemergence, 125 g ai/ha
  Plant response rating, Foxtail, Green: 0
Blackgrass [14]; 500 g ai/ha, postemergence
  Plant response rating, Blackgrass: 30
Blackgrass [14]; Postemergence, 125 g ai/ha
  Plant response rating, Blackgrass: 0
rice
  Plant response rating, Rice (Flood): 0
Wheat [15]; 500 g ai/ha
  Wheat plant response rating: 40
Wheat [15]; Test C, 125 g ai/ha
  Wheat plant response rating: 20
oat, wild [16]; 500 g ai/ha
  Oat, Wild plant response rating: 80
oat, wild [16]; Test C, 125 g ai/ha
  Oat, Wild plant response rating: 0
Soybean [17]; 500 g ai/ha, postemergence
  Plant response rating, Soybean: 90
Soybean [17]; Postemergence, 125 g ai/ha
  Plant response rating, Soybean: 80
Barnyardgrass [18]; 500 g ai/ha, postemergence
  Plant response rating, Barnyardgrass: 10
Barnyardgrass [18]; Postemergence, 125 g ai/ha
  Plant response rating, Barnyardgrass: 10
Corn [19]; 500 g ai/ha
  Corn plant response rating: 0
pigweed, palmer [20]; 500 g ai/ha, postemergence
  Plant response rating, Pigweed, Palmer: 20
pigweed, palmer [20]; Postemergence, 125 g ai/ha
  Plant response rating, Pigweed, Palmer: 10
Barnyardgrass [21]; 500 g ai/ha
  Barnyardgrass plant response rating: 50
Barnyardgrass [21]; Test C, 125 g ai/ha
  Barnyardgrass plant response rating: 0
sedge, umbrella
  Plant response rating, Sedge, Umbrella (Flood): 0

## CCOc1ncn(-c2cccc(C(=O)N3C[C@H](C)Oc4c(Cl)cccc43)c2)n1 [Compound 311]
oat, wild [1]; 500 g ai/ha, postemergence
  Plant response rating, Oat, Wild: 10
oat, wild [1]; Postemergence, 125 g ai/ha
  Plant response rating, Oat, Wild: 0
Barnyardgrass [2]
  Plant response rating, Barnyardgrass (Flood): 0
Soybean [3]; 500 g ai/ha
  Soybean plant response rating: 10
Soybean [3]; Test C, 125 g ai/ha
  Soybean plant response rating: 0
pigweed, palmer [4]; 500 g ai/ha
  Pigweed, Palmer plant response rating: 100
pigweed, palmer [4]; Test C, 125 g ai/ha
  Pigweed, Palmer plant response rating: 50
Blackgrass [5]; 500 g ai/ha
  Blackgrass plant response rating: 80
Blackgrass [5]; Test C, 125 g ai/ha
  Blackgrass plant response rating: 10
horseweed; 500 g ai/ha, postemergence
  Plant response rating, Horseweed: 50
horseweed; Postemergence, 125 g ai/ha
  Plant response rating, Horseweed: 50
galium; 500 g ai/ha, postemergence
  Plant response rating, Galium: 90
galium; Postemergence, 125 g ai/ha
  Plant response rating, Galium: 90
ragweed; 500 g ai/ha, postemergence
  Plant response rating, Ragweed: 40
ragweed; Postemergence, 125 g ai/ha
  Plant response rating, Ragweed: 0
Green foxtail [6]; 500 g ai/ha
  Foxtail, Green plant response rating: 100
Green foxtail [6]; Test C, 125 g ai/ha
  Foxtail, Green plant response rating: 90
Wheat [7]; 500 g ai/ha, postemergence
  Plant response rating, Wheat: 10
Wheat [7]; Postemergence, 125 g ai/ha
  Plant response rating, Wheat: 10
Kochia [8]; 500 g ai/ha, postemergence
  Plant response rating, Kochia: 70
Kochia [8]; Postemergence, 125 g ai/ha
  Plant response rating, Kochia: 30
Corn [9]; 500 g ai/ha, postemergence
  Plant response rating, Corn: 40
Corn [9]; Postemergence, 125 g ai/ha
  Plant response rating, Corn: 10
ryegrass, Italian [10]; 500 g ai/ha, postemergence
  Plant response rating, Ryegrass, Italian: 30
ryegrass, Italian [10]; Postemergence, 125 g ai/ha
  Plant response rating, Ryegrass, Italian: 10
ryegrass, Italian [11]; 500 g ai/ha
  Ryegrass, Italian plant response rating: 80
ryegrass, Italian [11]; Test C, 125 g ai/ha
  Ryegrass, Italian plant response rating: 30
Kochia [12]; 500 g ai/ha
  Kochia plant response rating: 80
Kochia [12]; Test C, 125 g ai/ha
  Kochia plant response rating: 20
ducksalad
  Plant response rating, Ducksalad (Flood): 0
Green foxtail [13]; 500 g ai/ha, postemergence
  Plant response rating, Foxtail, Green: 40
Green foxtail [13]; Postemergence, 125 g ai/ha
  Plant response rating, Foxtail, Green: 30
Blackgrass [14]; 500 g ai/ha, postemergence
  Plant response rating, Blackgrass: 90
Blackgrass [14]; Postemergence, 125 g ai/ha
  Plant response rating, Blackgrass: 0
rice
  Plant response rating, Rice (Flood): 0
Wheat [15]; 500 g ai/ha
  Wheat plant response rating: 20
Wheat [15]; Test C, 125 g ai/ha
  Wheat plant response rating: 0
oat, wild [16]; 500 g ai/ha
  Oat, Wild plant response rating: 30
oat, wild [16]; Test C, 125 g ai/ha
  Oat, Wild plant response rating: 0
Soybean [17]; 500 g ai/ha, postemergence
  Plant response rating, Soybean: 100
Soybean [17]; Postemergence, 125 g ai/ha
  Plant response rating, Soybean: 70
Barnyardgrass [18]; 500 g ai/ha, postemergence
  Plant response rating, Barnyardgrass: 40
Barnyardgrass [18]; Postemergence, 125 g ai/ha
  Plant response rating, Barnyardgrass: 10
Corn [19]; 500 g ai/ha
  Corn plant response rating: 0
Corn [19]; Test C, 125 g ai/ha
  Corn plant response rating: 0
pigweed, palmer [20]; 500 g ai/ha, postemergence
  Plant response rating, Pigweed, Palmer: 60
pigweed, palmer [20]; Postemergence, 125 g ai/ha
  Plant response rating, Pigweed, Palmer: 20
Barnyardgrass [21]; 500 g ai/ha
  Barnyardgrass plant response rating: 60
Barnyardgrass [21]; Test C, 125 g ai/ha
  Barnyardgrass plant response rating: 0
sedge, umbrella
  Plant response rating, Sedge, Umbrella (Flood): 0
